Data on two molecules can be found in patent publication US20110263677A1, “GOS2 MODULATORS IN THE TREATMENT OF ACNE, OF SEBORRHOEIC DERMATITIS OR OF HYPERSEBORRHOEA” (Galderma Research & Development, priority 2008, published 2011).

Experiment [1] relates to ACTB (standardizer 2). In words: Real-time PCR gene expression in rat epidermal split containing sebaceous glands after topical treatment: ACTB. It is filed as in vivo. The settings on record: topical administration, 0.3% in acetone, 96 hours. On the procedure: (§1) Strain: OFA-SD (SPF Caw),
(§2) Number per batch: 40 (8 animals per group) Treatment: Route of administration: topical
(§3) Compound/batch: PPARgamma agonist (rosiglitazone)
(§4) Method of evaluation: The animals are weighed at the beginning and at the end of the study. Skin biopsies are taken (6 samples of skin excised per rat) in order to analyse the expression of the genes (RNA extraction, reverse transcriptase and real-time PCR). The samples are stored overnight at 4° C. before incubation in 1M sodium bromide (NaBr) for 2 hours at 37° C. After incubation, the samples are separated into epidermis or dermis. The epidermal samples are stored at […]. Under these conditions, the sebaceous glands are in the epidermal split. PCRs are carried out, beginning with the cDNAs originating from the epidermal splits containing sebaceous glands from control rats or rats treated with the PPARγ agonist: the mRNA is extracted using a column and quantified. The quality of mRNAs is measured and is represented by the 18S/28S ratio. The results are standardized with respect to 18S, expressed as relative induction versus untreated animals (carrier group). The statistical analysis is obtained using internal software based on a modified Monte Carlo statistical analysis.

Experiment [2] concerns HPRT1 (standardizer 1). In words: Real-time PCR gene expression in rat epidermal split containing sebaceous glands after topical treatment: HPRT1. Conditions: topical administration, 0.3% in acetone, 96 hours. It is filed as in vivo. As to the method:
as §1, §2, §3, §4
In general terms: Real-time PCR tracks product formation cycle by cycle.

For experiment [3], the system named is GOS2. Nature of the experiment: Real-time PCR gene expression in rat epidermal split containing sebaceous glands after topical treatment: GOS2. It is filed as in vivo. Conditions: topical administration, 0.3% in acetone, 96 hours. As to the method:
as §1, §2, §3, §4

For experiment [4], the system named is PPARG (reference gene). Nature of the experiment: Real-time PCR gene expression in rat epidermal split containing sebaceous glands after topical treatment: PPARG. It is filed as in vivo. Conditions: topical administration, 0.3% in acetone, 96 hours. As to the method: as §1, §2, §3, §4
In experiment [5] the test system is PPARG. Described as above. Format: in vivo. Conditions: topical administration, 0.3% in acetone, 96 hours, versus carrier group. As to the method:
as §1, §2, §3, §4

The subject of experiment [6] is GOS2. The settings on record: mouse liver; Zandbergen et al., 2005; cited from earlier work.

On to `COCCOCOc1ccc2cc(C(=O)N(C)Cc3cccc(-c4ccc(CC5SC(=O)NC5=O)cc4)c3)ccc2c1` (stereo not drawn) [PPARgamma agonist, 6-(2-methoxyethoxy-methoxy)naphthalene-2-carboxylic acid [4′-(2,4-dioxothiazolidin-5-ylmethyl)biphenyl-3-ylmethyl]methylamide], for which the “Variation versus carrier after standardization (ΔΔCt)” value in experiment [1] is on record as 0.23; in experiment [2], −0.07; in experiment [3] it was 2.36; in experiment [4], 0.72. In addition, the Relative induction in experiment [1] (versus carrier group) was 1.18; in experiment [2] (versus carrier group), −1.05; in experiment [3] (versus carrier group) it was 5.24; in experiment [5] it was 1.65.

For `Cc1cccc(Nc2cc(Cl)nc(SCC(=O)O)n2)c1C` [Wy14643], the “expression of GOS2 (marker for PPARalpha)” value in experiment [6] is listed as “induced”.
